Reference: the supplement of paper PMC10307832

Key:
Assay in all cases: relative viability (nuclei count vs DMSO), 5 days (fraction); higher = more cells survive
Salubrinal + Linsitinib = compound: O=C(/C=C/c1ccccc1)NC(NC(=S)Nc1cccc2cccnc12)C(Cl)(Cl)Cl [Salubrinal] + C[C@]1(O)C[C@@H](c2nc(-c3ccc4ccc(-c5ccccc5)nc4c3)c3c(N)nccn32)C1 [Linsitinib] (partner 1 µM)
In short: (§1)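 Medians of duplicate plates are given as relative viability. That measure is the nuclei count in treated wells divided by the count in vehicle wells. Counts were taken on 4× images of lung cancer cell lines in 1536-well plates, 5 days after pin-tool dosing the day after seeding with one drug alone or a fixed anchor-drug dose plus five library-drug doses (not always all listed) in √10 steps.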

Salubrinal + Foretinib = compound: O=C(/C=C/c1ccccc1)NC(NC(=S)Nc1cccc2cccnc12)C(Cl)(Cl)Cl [Salubrinal] + COc1cc2c(Oc3ccc(NC(=O)C4(C(=O)Nc5ccc(F)cc5)CC4)cc3F)ccnc2cc1OCCCN1CCOCC1 [Foretinib] (partner 0.25 µM)
In short: as §1

Salubrinal + Bortezomib = compound: O=C(/C=C/c1ccccc1)NC(NC(=S)Nc1cccc2cccnc12)C(Cl)(Cl)Cl [Salubrinal] + CC(C)C[C@H](NC(=O)[C@H](Cc1ccccc1)NC(=O)c1cnccn1)B(O)O [Bortezomib] (partner 0.002 µM)
In short: as §1

[1] = compound: Cc1ccc2nc(NCCN)c3ncc(C)n3c2c1 + Cc1cc(Nc2cc(N3CCN(C)CC3)nc(Sc3ccc(NC(=O)C4CC4)cc3)n2)n[nH]1 [Tozasertib] (partner 0.1 µM)
In short: as §1

| Cell Line | relative viability (Salubrinal + Linsitinib; first compound 0.08 µM) | relative viability (Salubrinal + Linsitinib; first compound 0.253 µM) | relative viability (Salubrinal + Linsitinib; first compound 0.8 µM) | relative viability (Salubrinal + Linsitinib; first compound 2.53 µM) | relative viability (Salubrinal + Linsitinib; first compound 8 µM) | relative viability (Salubrinal + Foretinib; first compound 0.08 µM) | relative viability (Salubrinal + Foretinib; first compound 0.253 µM) | relative viability (Salubrinal + Foretinib; first compound 0.8 µM) | relative viability (Salubrinal + Foretinib; first compound 2.53 µM) | relative viability (Salubrinal + Foretinib; first compound 8 µM) | relative viability (Salubrinal + Bortezomib; first compound 0.08 µM) | relative viability (Salubrinal + Bortezomib; first compound 0.253 µM) | relative viability (Salubrinal + Bortezomib; first compound 0.8 µM) | relative viability (Salubrinal + Bortezomib; first compound 2.53 µM) | relative viability (Salubrinal + Bortezomib; first compound 8 µM) | relative viability ([1]; first compound 0.04 µM) | relative viability ([1]; first compound 0.1265 µM) | relative viability ([1]; first compound 0.4 µM) | relative viability ([1]; first compound 1.265 µM) | relative viability ([1]; first compound 4 µM) |
| --- | --- | --- | --- | --- | --- | --- | --- | --- | --- | --- | --- | --- | --- | --- | --- | --- | --- | --- | --- | --- |
| NCI-H460 | 1.31 | 0.586 | 1 | 0.813 | 0.564 | 1.15 | 0.987 | 0.975 | 1.09 | 0.914 | 1.66 | 0.452 | 1.4 | 1.08 | 1.21 | 0.453 | 0.481 | 0.603 | 0.312 | 0.386 |
| NCI-H2009 | 1.16 | 1.17 | 1.28 | 1.2 | 1.14 | 1.28 | 1.2 | 1.27 | 1.22 | 1.24 | 1.07 | 1.05 | 1.01 | 1.01 | 0.771 | 0.754 | 0.725 | 0.72 | 0.734 | 0.541 |
| 201T | 1.04 | 0.982 | 1.09 | 1.07 | 0.97 | 1.36 |  | 1.17 | 1.04 | 1.12 | 1.14 | 1.06 | 1.14 | 1.09 | 1.11 | 0.985 | 0.976 | 0.908 | 0.971 | 0.913 |
| NCI-H23 | 0.576 | 0.473 | 0.516 | 0.67 | 0.535 | 1.13 | 0.999 | 1.08 | 0.894 | 0.959 | 1.25 | 0.871 | 1.2 | 1.04 | 1.16 | 0.707 | 0.403 | 0.451 | 0.301 | 0.422 |
| LOU-NH91 | 1.02 | 0.949 | 0.996 | 0.955 | 0.93 | 0.948 | 1.02 | 0.957 | 0.921 | 0.99 | 0.481 | 0.406 | 0.55 | 0.505 | 0.477 | 0.654 | 0.628 | 0.638 | 0.626 | 0.617 |
| NCI-H2085 | 1.03 | 0.754 | 0.896 | 0.787 | 0.868 | 1.2 | 0.793 | 0.894 | 0.924 | 1.01 | 1.07 | 0.877 | 1.04 | 1.03 | 1.05 | 0.801 | 0.765 | 0.881 | 0.703 | 0.802 |
| COR-L23 | 1.16 | 0.676 | 1.24 | 1 | 0.888 | 1.1 | 0.932 | 1.13 | 1.01 | 0.889 | 1.16 | 0.786 | 1.12 | 0.998 | 0.809 | 0.202 | 0.243 | 0.218 | 0.135 | 0.173 |
| BEN | 1.15 | 0.624 | 1.23 | 0.931 | 0.892 | 0.505 | 0.867 | 1.01 | 0.627 | 0.643 | 0.716 | 0.721 | 0.979 | 0.941 | 0.909 | 0.501 | 0.436 | 0.498 | 0.469 | 0.559 |
| NCI-H322M | 1.1 | 0.858 | 0.927 | 0.891 | 0.823 | 1.07 | 1.07 | 0.969 | 0.832 | 0.856 | 1.33 | 1.15 | 1.26 | 1.22 | 1.19 | 0.553 | 0.452 | 0.528 | 0.547 | 0.462 |
| NCI-H520 | 1.16 | 0.688 | 1.25 | 1.12 | 1.17 | 0.914 | 0.798 | 0.932 | 0.721 | 0.912 | 0.881 | 0.439 | 0.793 | 0.633 | 0.435 | 0.476 | 0.458 | 0.371 | 0.424 | 0.405 |
| ABC-1 | 0.802 | 0.753 | 0.76 | 0.952 | 0.781 | 1.15 | 1.05 | 0.972 | 0.993 | 0.886 | 0.322 | 0.35 | 0.363 | 0.303 | 0.281 | 0.171 | 0.15 | 0.171 | 0.187 | 0.22 |
| NCI-H1666 | 0.78 | 0.777 | 0.869 | 0.735 | 0.797 | 0.987 | 0.924 | 0.98 | 0.999 | 1.01 | 0.858 | 0.732 | 0.746 | 0.776 | 0.984 | 0.665 | 0.676 | 0.677 | 0.502 | 0.544 |
| NCI-H1993 | 0.757 | 0.722 | 0.775 | 0.805 | 0.816 | 0.818 | 0.767 | 0.792 | 0.736 | 0.713 | 1.09 | 1.05 | 1.31 | 1.01 | 1.28 | 0.602 | 0.593 | 0.543 | 0.566 | 0.581 |
| NCI-H1975 | 1.1 | 0.735 | 1.17 | 0.988 | 0.946 | 1.05 | 0.86 | 1 | 0.944 | 0.923 | 0.419 | 0.362 | 0.353 | 0.344 | 0.355 | 0.818 | 0.866 | 0.824 | 0.639 | 0.56 |
